According to patent US12636298B2, “Composition with L-theanine and fructooligosaccharides for human memory enhancement” (HARKE Pharma GmbH, priority 2019, dated 2026):

Columns and labels:
mice [1] = assay: Step-down passive avoidance test (MT-01 vs FOS and L-theanine); format: in vivo; conditions: for Error count during testing phase: MT-01 both, control 2.33; for latency during the retention phase (FIG. 1c): comparison between groups
Excerpt: (§1) Furthermore, to test the hypothesis that administration of M. officinalis FOS and L-theanine in a ratio of about 2:1 L-theanine:FOS synergistically enhance mice memory, we have performed a step-down passive avoidance test and a water maze test. This was employed to assess the effect of M. officinalis FOS and L-theanine individually on mice memory compared to their collective effect when administrated in combination in a ratio of about 2:1 L-theanine:FOS (MT-01) (FIG. 1).
We analysed the synergy between FOS and L-theanine in the formulation by calculating the coefficient of drug interaction (CDI), as shown in Table 1.

mice [2] = assay: Water maze test (MT-01 vs FOS and L-theanine); format: in vivo; conditions: for Error count during testing phase: MT-01 both, control 4.11
Experimental: as §1, with “1). Maze test was performed to further confirm the hypothesis. […] We analysed the synergy between FOS and L-theanine in the formulation by calculating the coefficient of drug interaction (CDI), as shown in Table 1.” for “1).”

KumMing (KM) mice = assay: Passive avoidance test (embodiment 1); format: in vivo, mouse
Excerpt: The Passive Avoidance Test (Solomon and Wynne, 1954; Solomon and Turner, 1960) is a fear-aggravated task employed to evaluate learning and memory in rodent models. In this test, subjects learn to avoid an environment in which an aversive stimulus (such as a foot-shock) was previously delivered. The test chamber is divided into a light compartment and a dark compartment, with a gate between the two. Animals are allowed to explore both compartments on the first day. On the following day, they are given a mild foot shock in one of the compartments. Animals will learn to associate certain properties of the chamber with the foot shock. In order to test their learning and memory, the mice are then placed back in the compartment where no shock was delivered. Mice with normal learning and memory will avoid entering the chamber where they had previously been exposed to the shock. This is measured by recording the latency to cross through the gate between the compartments. “Learning” is the period where mice were trained in this test (Table 1 and 2). Mice were tested at 24 or 48 hours after learning and the results were recorded (“Test column” in Table 1 and 2). “Fade” indicates re-testing of mice 5 days after learning (“Fade column” Table 1 and 2). Error percentage indicates the percentage of mice that have been shocked during the test. Our research was undertaken with KumMing (KM) mice (Dai et al. 2012; Ma et al. 2013). In each test, 48 KM mice were separated into 4 groups, 12 mice per group. A negative-control group was also included in the test and mock treated. […] We subsequently, tested different doses of embodiment 1, 0.1, 0.2 or 0.3 g/kg of mouse body weight (bw) of embodiment 1, consisting of a combination of fructooligoscharide and L-theanine, in the passive avoidance test.

[3] = Low dose: L-theanine 66, FOS 33 mg/kg·bw
[4] = Medium dose: L-theanine 134, FOS 66 mg/kg·bw
[5] = doses g/kg·bw: Embodiment 1 0.01, L-Theanine 0.0067, Fructooligosaccharide 0.0033, 24 or 48 hours after learning
[6] = doses g/kg·bw: Embodiment 1 0.01, L-Theanine 0.0067, Fructooligosaccharide 0.0033, 5 days after learning
[7] = doses g/kg·bw: Embodiment 1 0.01, L-Theanine 0.0067, Fructooligosaccharide 0.0033, training period

CCNC(=O)CC[C@H](N)C(=O)O [L-theanine]
Error count during testing phase (mice [1]; [3]): 0.83
Error count during testing phase (mice [1]; [4]): 1.00
latency during the retention phase (FIG. 1c) (mice [1]; high dose): higher latency
latency during the retention phase (FIG. 1c) (mice [1]; low dose): neither the FOS-only nor L-theanine-only group show any significant difference
Error count during testing phase (mice [2]; High dose: L-theanine 200, FOS 100 mg/kg·bw): 2.41
Error count during testing phase (mice [2]; [3]): 2.45
Error count during testing phase (mice [2]; [4]): 2.95
time to escape during the test (FIG. 1a) (mice [2]; all doses, compared to control group, p<0.05): significantly (p<0.05) less time to escape
escape time during test (mice [2]; medium and high dose, between MT-01, L-theanine and FOS): no significant differences
impact on rodent memory in the mouse passive avoidance test (KumMing (KM) mice; Table 1 doses, vs control): neither fructooligoscharide nor L-theanine alone have a positive impact on rodent memory
Test Error Count (KumMing (KM) mice; [5]): 1.22 ± 1.14
Test Incubation period (KumMing (KM) mice; [5]): 232.13 ± 70.71 s
Fade Error Count (KumMing (KM) mice; [6]): 1.40 ± 1.07
Fade Incubation period (KumMing (KM) mice; [6]): 267.80 ± 51.03 s
Learning Error Count (KumMing (KM) mice; [7]): 3.90 ± 1.52
Learning Incubation period (KumMing (KM) mice; [7]): 48.30 ± 10.71 s
